In EP0714404B1, “ANTI-INFLAMMATORY PEPTIDES” (CURATIVE TECHNOLOGIES, INC., priority 1993, dated 1995):
Like-named read-outs stand apart in the source and are kept apart here. Residues, ends and D or L forms follow the SMILES beside them.

Legend:
Type in all cases: in vivo, mice
[1] = test system: Arachidonic Acid Induced Inflammation; conditions: mouse, in vivo
Description: (§1) The anti-inflammatory properties of CT-112 (SEQ. ID NO: 1) were assessed using a standardized assay for anti-inflammatory activity, i.e., the mouse ear model in which arachidonic acid (AA) is used to induce an inflammatory reaction (Young et al., 1984, J. Invest. Dermatol. 82:367-371; Doherty, et al., 1988, J. Invest. Dermatol. 91:298-302).
(§2) Female mice (C57BL/6UAF, Charles River Breeding Laboratories, approximately 15-18 g) were obtained and acclimated for 2 weeks prior to use. The animals were approximately 14 weeks old at the start of the study.
(§3) To prepare minipumps for implantation, CT-112 (SEQ. ID NO: 1) was dissolved in PBS. The material was loaded into Alzet minipumps set to deliver 0.05 (5 animals), 0.1 (10 animals), 1 (10 animals), or 2.5 (5 animals) mg of CT-112 (SEQ. ID NO: 1) per animal per day. Minipumps for implantation into control animals contained only PBS. As a positive control, one set of 10 mice received 100 mg/kg of phenidone, a potent 5-lipoxygenase inhibitor which acts as an anti-inflammatory agent, 15 min prior to challenge with AA.
(§4) For subcutaneous implantation of minipumps, animals were anesthetized with Ketamine/Xylazine. The Ketamine (Aveco Lot #440140) was injected at 80 mg/kg and the Xylazine (Rugby Laboratories Lot #26040-B) at 16 mg/kg and the Alzet pumps were implanted subcutaneously in the dorsothoracic area. Animals were allowed to recover and then housed and given food and water ad libitum for 5 days.
(§5) On the sixth day following pump implantation, 0.01 ml of AA was applied to the inner and outer surfaces of the right ear by means of an automatic microliter pipette. One hr following AA application, the mice were sacrificed and ear thickness was measured with a Mitutoyo No. 7300 Gauge Caliper. The left ears were also measured as an internal control.
(§6) Mice were implanted with Alzet mini-pumps set to deliver 60 mg/kg/day for either 7, 3, or 1 days. A separate group of 5 mice received 3 intraperitoneal injections of CT-112 (60 mg/kg/injection) at 24, 1 and 0.25 hr prior to AA challenge. CT-112 (SEQ. ID NO: 1) was prepared for injection by dissolving the compound in Dulbecco's PBS to give a final CT-112 (SEQ. ID NO: 1) concentration of 5 mg/ml. The control mice were implanted with Alzet minipumps that delivered PBS for 7 days. The AA challenge was the same as described supra in Example 7.
(§7) Administration of CT-112 (SEQ. ID NO: 1) (60 mg/kg/injection) via multiple intraperitoneal injections was performed at the following times prior to AA challenge: • a) 6, 3, 1 and 0.25 hr; • b) 3, 1 and 0.25 hr; or • c) 1 and 0.25 hr.
(§8) In addition, the effect of a single administration of CT-112 (SEQ. ID NO: 1) (60 mg/kg) by intraperitoneal injection was performed at either 1 or 3 hr prior to AA challenge. Control mice had Alzet minipumps implanted to deliver PBS for 7 days prior to AA challenge. The AA challenge was the same as described supra in Example 7. The results of the multiple dosing regimens and the 1 hr and 3 hr single dosing regimens were compared to the anti-inflammatory activity of CT-112 (SEQ. ID NO: 1) delivered via Alzet minipump set to deliver 60 mg/kg/day for 7 days using 5 animals per treatment.
In a separate experiment, the effect of multiple intraperitoneal injections of CT-112 (SEQ. ID NO: 1) at either 6, 3, 1 and 0.25 hr, or 16, 3, 1 and 0.25 hr prior to AA challenge was assessed. The results of both multi-dosing regimens were compared to both phenidone (100 mg/kg administered 15 min prior to AA challenge) and CT-112 (SEQ. ID NO: 1) administered via Alzet mini-pump (60 mg/kg/day for 7 days). For this latter study, the number of animals receiving the single injection of CT-112 (SEQ. ID NO: 1) was increased from 5 to 10.
Administration to mice of CT-112 (SEQ. ID NO: 1) (60 mg/kg/injection) via multiple subcutaneous injections prior to AA challenge was performed at: • a) 6, 3, 1 and 0.25 hr; • b) 3, 1 and 0.25 hr; or • c) 1 and 0.25 hr. […]

[2] = test system: Arachidonic Acid Induced Inflammation; assay: mouse ear model, arachidonic acid (AA) induced inflammation, ear thickness
Description: as §1, §2, §3, §4, §5, §6, §7, §8
In a separate experiment, the effect of multiple intraperitoneal injections of CT-112 (SEQ. ID NO: 1) at either 6, 3, 1 and 0.25 hr, or 16, 3, 1 and 0.25 hr prior to AA challenge was assessed. […]

[3] = test system: Arachidonic Acid Induced Myeloperoxidase Activity in Mouse Ear; assay: myeloperoxidase activity in AA-treated mouse ear tissue (marker for PMNs); set-up: dose or concentration left out as unconfirmed; conditions: Phenidone 100
Description: Myeloperoxidase activity in ear tissue was measured as a marker for the presence or absence of polymorphonuclear leukocytes (PMNs) (Barone et al., 1991, J. Neurosci. Res. 29:336-345). After measurement of ear thickness, ears were dissected from the mice and homogenized in 50mM Tris-HCL, pH 7.4 at 4°C to give a 10% (w/v) homogenate. Aliquots of the homogenate were used to determine the amount of myeloperoxidase activity present in the tissue using o-dianisidine (Sigma Chem Co., St. Louis MO) and hydrogen peroxide as substrates and monitoring chromophore generation at 460 nm (Barone et al., 1991, J. Neurosci. Res. 29:336-345).

[4] = test system: Delayed Type Hypersensitivity; assay: mouse model of delayed-type hypersensitivity induced by DNCB; conditions: Prednisone ip 25 mg/kg, 2 hr prior to challenge
Description: CT-112 (SEQ. ID NO: 1) was tested for its ability to modulate the immune response in a mouse model of delayed hypersensitivity (Filipp et al., 1984, Allergy, 39: 499-507; Diezel et al., 1989 J. Invest. Dermatol. 93:322-326). The mice used in this study were 8-wk old hairless females (Jackson Laboratories). The mice were sensitized to a contact allergen (1-chloro-2,4-dinitrobenzene, DNCB) by painting the dorsothoracic region twice daily for 5 consecutive days with 50 µl of 0.5% DNCB in 75% acetone:25% vegetable oil. The animals were allowed to rest for 24 hr prior to challenge with DNCB. On the sixth day after initiation of the sensitization treatments, the animals were challenged with 50 µl of DNCB solution applied to the left ear. After 24 hrs, the ear thickness was determined and compared to the unchallenged ear.
The treatment groups were as follows: • a) PBS control; • b) Prednisone (intraperitoneal injection of 25 mg/kg, 2 hr prior to challenge); • c) 7-day pump (60 mg CT-112/kg/24 hr); • d) CT-112 (intraperitoneal injections of 60 mg/kg/injection at 3, 1, and 0.25 hr prior to challenge and 3, 6 and 21 hr post-challenge); • e) DMSO control (topical application of 50 µl at 3, 1 and 0.25 hr prior to challenge; and • f) CT-112 in DMSO (20 mg/ml, topical application of 50 µl at 3, 1, and 0.25 hr prior to challenge and 3, 6 and 21 hr post-challenge).

[5] = Table V, Phenidone 100 mg/kg 15 min prior to AA

CC(C)[C@H](NC(=O)[C@H](CCC(N)=O)NC(=O)[C@H](CO)NC(=O)[C@@H](NC(=O)[C@@H](N)[C@@H](C)O)[C@@H](C)O)C(=O)O [CT-114, Thr-Thr-Ser-Gln-Val] (H-TTSQV-OH)
% Inhibition of Inflammation ([1]; 6 mg/kg/day): 59.3% | % Inhibition of Inflammation ([1]; 60 mg/kg/day): 62.4%

O=C1CCN(c2ccccc2)N1 [Phenidone]
Ear Thickness ([2]; Phenidone 100mg/kg, 15 min prior to AA, 1 hr after AA): 0.01176 ± 0.0008 (10) in | % Inhibition of Inflammation ([2]; Table III, Phenidone 100 mg/kg): 88% | Thickness Difference (Left-Right) ([2]; Table III, Phenidone 100 mg/kg): 0.00073 ± 0.00153 in | % Inhibition of Inflammation [2, 5]: 84.2% | Thickness Difference (Left-Right) [2, 5]: 0.00102 ± 0.00038(5) in | Myeloperoxidase Activity [3]: 14.5 ± 8.6 µmole of chromophore formed/min

C[C@]12C=CC(=O)C=C1CC[C@@H]1[C@@H]2C(=O)C[C@@]2(C)[C@H]1CC[C@]2(O)C(=O)CO [Prednisone]
% Inhibition of Inflammation [4]: 96.7% | Thickness Difference (Left-Right) ([4]; 24 hrs after DNCB): 0.00014 ± 0.000446 in
